The first experiment has as its target T1, hCA I (Homo sapiens, UniProt P00915).
T1 construct: gene CA1
The experiment in a line: stopped-flow CO2 hydrase assay. Type of experiment: biochemical. Particulars: CO2 substrate, […] HEPES pH […] °C, […] min preincubation; read-out: KI (nM) ^a / CA I.
T1 sequence (P00915 2-261): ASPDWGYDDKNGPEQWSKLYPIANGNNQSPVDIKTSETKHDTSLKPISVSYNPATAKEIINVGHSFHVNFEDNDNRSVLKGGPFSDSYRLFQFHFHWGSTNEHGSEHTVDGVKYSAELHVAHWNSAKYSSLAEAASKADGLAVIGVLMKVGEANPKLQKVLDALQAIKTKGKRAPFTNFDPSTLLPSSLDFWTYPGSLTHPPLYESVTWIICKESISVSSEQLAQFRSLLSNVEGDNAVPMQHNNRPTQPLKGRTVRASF
On to `NS(=O)(=O)c1cccc(S(N)(=O)=O)c1` [compound 3, 3], for which the Ki is 79 nM.

The experiment is the same for the next values; noted with them: read-out: KI (nM) ^a / CA I.
As to `Cc1ccc(S(N)(=O)=O)cc1` [compound 4, 4], the Ki turned out to be 78500 nM.

The target of a further experiment is T2, βAbauCA (CanB) (Acinetobacter baumannii, UniProt A0A7U3Y636).
T2 construct: gene AB57_1063; oligomer not determined here
T2 sequence (A0A7U3Y636 1-204): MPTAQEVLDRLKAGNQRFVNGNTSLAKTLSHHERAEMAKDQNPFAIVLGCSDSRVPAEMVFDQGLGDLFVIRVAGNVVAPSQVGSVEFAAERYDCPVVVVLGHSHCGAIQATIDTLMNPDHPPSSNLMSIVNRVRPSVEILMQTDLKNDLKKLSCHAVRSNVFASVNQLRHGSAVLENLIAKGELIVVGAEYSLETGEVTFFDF
The experiment in a line: stopped-flow CO2 hydrase assay. Type of experiment: biochemical. To be noted: CO2 substrate, […] TRIS pH […] NaClO4, […] °C, […] min preincubation.
On to `CC(=O)Nc1nnc(S(N)(=O)=O)s1` [AAZ, 5-acetamido-1,3,4-thiadia-zole-2-sulphonamide], for which the Ki stood at 191 nM.

As to `CCN[C@H]1CN(CCCOC)S(=O)(=O)c2sc(S(N)(=O)=O)cc21` [BRZ, Brinzolamide], the Ki came out at 170 nM.

Compound `NS(=O)(=O)c1nnc(NS(=O)(=O)c2ccccc2)s1` [BZA, Benzolamide] registered a Ki of 113 nM.

`Cc1ccc(-c2cc(C(F)(F)F)nn2-c2ccc(S(N)(=O)=O)cc2)cc1` [CLX] returned a Ki of 270 nM.

On to `NS(=O)(=O)c1cc(Cl)c(Cl)c(S(N)(=O)=O)c1` [DCP], for which the Ki was 472 nM.

For the compound `CCN[C@H]1C[C@H](C)S(=O)(=O)c2sc(S(N)(=O)=O)cc21` [DZA], the Ki came to 232 nM.

In turn, `NS(=O)(=O)c1cc2c(cc1Cl)NCNS2(=O)=O` [HCT] registered a Ki of 875 nM.

For the compound `CC(=O)N=c1sc(S(N)(=O)=O)nn1C` [MZA], the Ki amounted to 249 nM.

The compound `O=C1NS(=O)(=O)c2ccccc21` [SAC] yielded a Ki of 7490 nM.

For the compound `CCN1CCCC1CNC(=O)c1cc(S(N)(=O)=O)ccc1OC` (stereo not shown) [SLP], the Ki was determined as 6860 nM.

In the case of `NS(=O)(=O)c1ccc(N2CCCCS2(=O)=O)cc1` [SLT], the Ki worked out at 542 nM.

With `CC1(C)O[C@@H]2[C@@H](CO[C@@]3(COS(N)(=O)=O)OC(C)(C)O[C@@H]23)O1` [TPM, topiramate], the Ki was determined as 2770 nM.

Turning to `Cc1onc(-c2ccccc2)c1-c1ccc(S(N)(=O)=O)cc1` [VLX], the Ki is 215 nM.

`NS(=O)(=O)Cc1noc2ccccc12` [ZNS] came in with a Ki of 2340 nM.

In the case of `Cc1ccc(S(N)(=O)=O)cc1` [compound 4, 4], the Ki turned out to be 1480 nM.

The compound `NS(=O)(=O)c1cc(Cl)cc(Cl)c1O` [compound 10, 10] registered a Ki of 4160 nM.

On to `Nc1cc(C(F)(F)F)c(S(N)(=O)=O)cc1S(N)(=O)=O` [compound 11, 11], for which the Ki came out at 928 nM.

`Nc1cc(Cl)c(S(N)(=O)=O)cc1S(N)(=O)=O` [compound 12, 12]: the Ki came to 1200 nM.

`Nc1nnc(S(N)(=O)=O)s1` [compound 13, 13] registered a Ki of 444 nM.

Consider `Cn1nc(S(N)(=O)=O)sc1=N` [compound 14, 14], for which the Ki came to 604 nM.

As to `NS(=O)(=O)c1ccc(O)cc1` [compound 15, 15], the Ki came to 625 nM.

In turn, `NS(=O)(=O)c1ccc(CO)cc1` [compound 16, 16] displayed a Ki of 700 nM.

`NS(=O)(=O)c1ccc(CCO)cc1` [compound 17, 17] displayed a Ki of 715 nM.

For the compound `NS(=O)(=O)c1ccc(C(=O)O)cc1` [compound 18, 18], the Ki was determined as 547 nM.

With `Nc1nccc(Nc2ccc(S(N)(=O)=O)cc2)n1` [compound 19, 19], the Ki worked out at 407 nM.

Turning to `Nc1ccc(S(=O)(=O)Nc2nnc(S(N)(=O)=O)s2)cc1` [compound 20, 20], the Ki amounted to 344 nM.

`Nc1ccc(S(=O)(=O)Nc2ccc(S(N)(=O)=O)cc2)cc1` [compound 22, 22] displayed a Ki of 276 nM.

Consider `Nc1ccc(S(=O)(=O)NCc2ccc(S(N)(=O)=O)cc2)cc1` [compound 23, 23], for which the Ki was found to be 317 nM.

`Nc1ccc(S(=O)(=O)NCCc2ccc(S(N)(=O)=O)cc2)cc1` [compound 24, 24]: the Ki is 326 nM.

(Values after article PMC11594608, “Sulfonamide-Based Inhibition of the β-Carbonic Anhydrase from A. baumannii, a Multidrug-Resistant Bacterium” (International Journal of Molecular Sciences, 2024).)
